# Reference: patent US4724233A, “Therapeutical application of phosphonylmethoxyalkyl adenines” (Stichting Rega VZW, priority 1985, dated 1988)
# “Also recorded” adds a separate entry of the source. Read-outs that look alike come from different tables or passages of the source.
# What was measured:
# [1] = tested on: HSV-1 (strain) TK^- C1101; assay: inhibition of cytopathic effect of HSV-1 TK- strain C1101; assay type: cell-based, herpes simplex virus type 1; conditions: for EC50: Human alphaherpesvirus 1, PRK, read-out: MIC50
# TK^- herpes viruses = conditions: Prusoff et al.; cited from earlier work
# [2] = cited from earlier work
# Vesicular stomatitis = assay: microbe, parasite or virus in culture; assay type: cell-based; conditions: for EC50: read-out: MIC50
# Vaccinia = assay: microbe, parasite or virus in culture; assay type: cell-based; conditions: for EC50: Orthopoxvirus vaccinia, PRK, read-out: MIC50
# [3] = tested on: HSV-1 (strain) TK^- B2006; assay: inhibition of cytopathic effect of HSV-1 TK- strain B2006; assay type: cell-based, herpes simplex virus type 1; conditions: for EC50: Human alphaherpesvirus 1, PRK, read-out: MIC50
# CMV (strain) Davis = assay: inhibition of CMV strain Davis in HEL cells; assay type: cell-based, cytomegalovirus; conditions: Human betaherpesvirus 5, Table 5, read-out: MIC50
# Herpes simplex 2 (G) = assay: inhibition of cytopathic effect of herpes simplex 2 (G); assay type: cell-based, herpes simplex virus type 2; conditions: PRK cells; for EC50: Human alphaherpesvirus 2, PRK, read-out: MIC50
# CMV (strain) AD 169 = assay: inhibition of CMV strain AD 169 in HEL cells; assay type: cell-based, cytomegalovirus; conditions: Human betaherpesvirus 5; Table 5; CMV AD 169, HEL cells; read-out: MIC50
# HSV-2 (strain) Lyons = assay: inhibition of cytopathic effect of HSV-2 strain Lyons; assay type: cell-based, herpes simplex virus type 2; conditions: Table 4, HSV-2 Lyons, PRK cells; for EC50: Human alphaherpesvirus 2, read-out: MIC50
# HSV-2 (strain) 196 = assay: inhibition of cytopathic effect of HSV-2 strain 196; assay type: cell-based, herpes simplex virus type 2; conditions: Table 4, HSV-2 196, PRK cells; for EC50: Human alphaherpesvirus 2, read-out: MIC50
# HSV-1 (strain) McIntyre = assay: inhibition of cytopathic effect of HSV-1 strain McIntyre; assay type: cell-based, herpes simplex virus type 1; conditions: Table 4, HSV-1 McIntyre, PRK cells; for EC50: Human alphaherpesvirus 1, read-out: MIC50
# Moloney sarcoma = assay: inhibition of Moloney sarcoma virus; assay type: cell-based, Moloney mouse sarcoma virus; conditions: Table 3, MO cells; for EC50: Mus musculus, read-out: MIC50
# Herpes simplex I (KOS) = assay: inhibition of cytopathic effect of herpes simplex 1 (KOS); assay type: cell-based, herpes simplex virus type 1; conditions: PRK cells; for EC50: Human alphaherpesvirus 1, read-out: MIC50
# HSV-1 (strain) F = assay: inhibition of cytopathic effect of HSV-1 strain F; assay type: cell-based, herpes simplex virus type 1; conditions: Table 4, HSV-1 F, PRK cells; for EC50: Human alphaherpesvirus 1, read-out: MIC50
# Sindbis = assay: inhibition of cytopathic effect of Sindbis; assay type: cell-based; conditions: Table 3, Vero B cells
# VZV (strain) TK^- YSR = assay: microbe, parasite or virus in culture; assay type: cell-based, varicella-zoster virus; conditions: Human alphaherpesvirus 3, HEL, read-out: MIC50
# Reovirus = assay: inhibition of cytopathic effect of reovirus; assay type: cell-based; conditions: Table 3, Vero B cells
# Parainfluenza 3 = assay: inhibition of cytopathic effect of parainfluenza 3; assay type: cell-based; conditions: Table 3, Vero B cells
# VZV (strain) OKa = assay: microbe, parasite or virus in culture; assay type: cell-based, varicella-zoster virus; conditions: Human alphaherpesvirus 3, HEL, read-out: MIC50
# Coxsackie B4 = assay: inhibition of cytopathic effect of Coxsackie B4; assay type: cell-based; conditions: Table 3, Vero B, HeLa cells
# [4] = tested on: herpes simplex virus type 1 (HSV-1) (strain KOS); assay type: cell-based; conditions: PRK cells
# Polio 1 = assay: microbe, parasite or virus in culture; assay type: cell-based
# [5] = antimetabolic activity: incorporation of 3H-labeled precursors into primary rabbit kidney cells; conditions: rabbit, prk cells
# VZV (strain) YS = assay: microbe, parasite or virus in culture; assay type: cell-based, varicella-zoster virus; conditions: Human alphaherpesvirus 3, Table 5, HEL cells, read-out: MIC50
# Measles = assay: inhibition of cytopathic effect of measles; assay type: cell-based; conditions: Table 3, Vero Flow cells
# DNA-viruses = assay type: cell-based
# in vitro = conditions: rabbit, prk cells
# VZV (strain) TK^- 07-1 = assay: microbe, parasite or virus in culture; assay type: cell-based, varicella-zoster virus; conditions: Human alphaherpesvirus 3, HEL, read-out: MIC50
# vaccinia virus (VV) = assay type: cell-based; conditions: PRK cells, average of two determinations
# PRK cells [6] = assay: antimetabolic activity: incorporation of 3H-labeled precursors into primary rabbit kidney cells
# PRK cells [7] = conditions: 72 h
# [8] = 48 h, 10 μg/ml (value in parentheses)
compound,measurement,setting,value
"Nc1nc2c(ncn2COCCO)c(=O)[nH]1 [ACV, aclycovir, reference compound]",EC50,[1],20 µg/mL
same,activity against TK^- herpes viruses (in words),TK^- herpes viruses,inactive
same,solubility (in words),[2],low solubility
same,EC50,Vesicular stomatitis,> 400 µg/mL
same,EC50,Vaccinia,70 µg/mL
same,EC50,[3],70 µg/mL
same,EC50,CMV (strain) Davis,20 µg/mL
same,EC50,Herpes simplex 2 (G); Table 3,0.7 µg/mL
same,EC50,"Herpes simplex 2 (G); Table 4, HSV-2 G",0.07 µg/mL
same,EC50,CMV (strain) AD 169,30 µg/mL
same,EC50,HSV-2 (strain) Lyons,0.07 µg/mL
same,EC50,HSV-2 (strain) 196,0.07 µg/mL
same,EC50,HSV-1 (strain) McIntyre,0.1 µg/mL
same,EC50,Moloney sarcoma,50 µg/mL
same,EC50,Herpes simplex I (KOS); Table 3,0.2 µg/mL
same,EC50,HSV-1 (strain) F,0.2 µg/mL
"Nc1ncnc2c1ncn2C[C@@H](CO)OCP(=O)(O)O [No. 4, (S)-9-(3-hydroxy-2-phosphonylmethoxypropyl)adenine]",EC50,Sindbis; read-out: MIC50,> 400 µg/mL
same,EC50,VZV (strain) TK^- YSR,0.004 µg/mL
same,EC50,"Reovirus; Reovirus sp., read-out: MIC50",> 40 µg/mL
same,EC50,[1],1 µg/mL
same,EC50,Parainfluenza 3; read-out: MIC50,> 200 µg/mL
same,EC50,VZV (strain) OKa,0.004 µg/mL
same,EC50,"Coxsackie B4; Enterovirus B, B4, read-out: MIC50",> 400 µg/mL
same,Titer of HSV-1,"[4]; 24 h, 100 μg/ml",< 1.3 log10 PFU/ml
same,Titer of HSV-1,[4]; [8],4.3 log10 PFU/ml
same,Titer of HSV-1,"[4]; 48 h, 100 μg/ml",< 1.3 log10 PFU/ml
same,EC50,Vesicular stomatitis,> 400 µg/mL
same,EC50,"Polio 1; HeLa, read-out: MIC50",> 400 µg/mL
same,IC50,"[5]; ID50 Leu incorporation, (3H-4,5)Leu",> 400 µg/mL
same,IC50,"[5]; ID50 Urd incorporation, (3H-5)Urd",> 400 µg/mL
same,IC50,"[5]; ID50 dThd incorporation, (3H-methyl) dThd",297 µg/mL
same,IC50,"[5]; ID50 dUrd incorporation, (3H-1',2')dUrd",74 µg/mL
same,EC50,Vaccinia,0.3 to 1.5 µg/mL
same,EC50,[3],1 µg/mL
same,EC50,CMV (strain) Davis,0.3 µg/mL
same,EC50,Herpes simplex 2 (G); Table 3,1 to 3 µg/mL
same,EC50,"Herpes simplex 2 (G); Table 4, HSV-2 G",1 to 3 µg/mL
same,EC50,CMV (strain) AD 169,0.3 µg/mL
same,EC50,VZV (strain) YS,0.004 µg/mL
same,EC50,HSV-2 (strain) Lyons,1 µg/mL
same,EC50,"Measles; Measles morbillivirus, read-out: MIC50",> 40 µg/mL
same,EC50,HSV-2 (strain) 196,1 to 3 µg/mL
same,antiviral activity (in words),DNA-viruses,the most effective one; also recorded: best antiviral activity
same,MCC at 72 h,in vitro,≥ 200 µg/mL
same,EC50,HSV-1 (strain) McIntyre,1 to 3 µg/mL
same,EC50,Moloney sarcoma,1 µg/mL
same,EC50,Herpes simplex I (KOS); Table 3,1 µg/mL
same,EC50,VZV (strain) TK^- 07-1,0.004 µg/mL
same,EC50,HSV-1 (strain) F,1 to 3 µg/mL
same,Titer of VV,vaccinia virus (VV); [8],< 1.3 log10 PFU/ml
same,Titer of VV,"vaccinia virus (VV); 48 h, 100 μg/ml",< 1.3 log10 PFU/ml
(RS)-9-(2(3)hydroxy-3(2)-phosphonylmethoxypropyl)adenine [No. 1],MIC50,Sindbis,> 400 µg/mL
same,MIC50,Reovirus,> 400 µg/mL
same,MIC50,"[1]; Table 4, HSV-1 TK^- C1101, PRK cells",7 to 20 µg/mL
same,MIC50,Parainfluenza 3,> 200 µg/mL
same,MIC50,Coxsackie B4,> 400 µg/mL
same,Titer of HSV-1,"[4]; 1 h, 100 μg/ml",< 1.3 log10 PFU/ml
same,Titer of HSV-1,"[4]; 24 h, 100 μg/ml",3.3 log10 PFU/ml
same,Titer of HSV-1,"[4]; 48 h, 100 μg/ml",4.0 log10 PFU/ml
same,Titer of HSV-1,"[4]; 72 h, 100 μg/ml",3.9 log10 PFU/ml
same,MIC50,"Vesicular stomatitis; Table 3, HeLa, PRK cells",> 400 µg/mL
same,MIC50,"Polio 1; Table 3, HeLa cells",> 400 µg/mL
same,ID50 dUrd incorporation,"PRK cells [6]; (3H-1',2')dUrd",230 µg/mL
same,ID50 Leu incorporation,"PRK cells [6]; (3H-4,5)Leu",> 400 µg/mL
same,ID50 Urd incorporation,PRK cells [6]; (3H-5)Urd,> 400 µg/mL
same,ID50 dThd incorporation,PRK cells [6]; (3H-methyl) dThd,250 µg/mL
same,MIC50,"Vaccinia; Table 3, PRK cells",0.7 to 3.0 µg/mL
same,MIC50,"[3]; Table 4, HSV-1 TK^- B2006, PRK cells",7 µg/mL
same,MIC50,Herpes simplex 2 (G); Table 3,7 to 20 µg/mL
same,MIC50,"Herpes simplex 2 (G); Table 4, HSV-2 G",7 to 20 µg/mL
same,MIC50,HSV-2 (strain) Lyons,7 to 15 µg/mL
same,MIC50,Measles,> 400 µg/mL
same,MCC (minimal cytotoxic concentration),PRK cells [7],≥ 100 µg/mL
same,MIC50,HSV-2 (strain) 196,15 to 70 µg/mL
same,MIC50,HSV-1 (strain) McIntyre,30 µg/mL
same,MIC50,Moloney sarcoma,> 60 µg/mL
same,MIC50,Herpes simplex I (KOS); Table 3,20 to 30 µg/mL
same,MIC50,"Herpes simplex I (KOS); Table 4, HSV-1 KOS",20 to 30 µg/mL
same,MIC50,HSV-1 (strain) F,15 to 30 µg/mL
same,Titer of VV,"vaccinia virus (VV); 1 h, 100 μg/ml",1.7 log10 PFU/ml
same,Titer of VV,"vaccinia virus (VV); 24 h, 100 μg/ml",1.7 log10 PFU/ml
same,Titer of VV,"vaccinia virus (VV); 48 h, 100 μg/ml",1.2 log10 PFU/ml
same,Titer of VV,"vaccinia virus (VV); 72 h, 100 μg/ml",1.5 log10 PFU/ml
